Patent publication US11078259B2, “Methods and compositions for promoting thermogenic potential” (Joslin Diabetes Center, Inc., priority 2015, dated 2021)

Tested on: UCP1 and DIO2 expression in differentiated hBA
Assay: Q-RT-PCR for UCP1 and DIO2 in differentiated hBA treated with norepinephrine or browning agents
Assay type: cell-based, human
Conditions: hBAs from subject 2; 1 uM norepinephrine (NE) for 4 h
Protocol: FIG. 4A depicts total cellular respiration rate (OCR) measured using the Seahorse extracellular flux analyzer in differentiated hWA and hBA from Sub1 and Sub2 that were treated for 4 h with 10 uM forskolin (Fsk). The same number of cells was used in the assay. Data are presented as mean±s.e.m. (n=10; two-tailed Student's t-test; *P<0.05, **P<0.01, ***P<0.001). A representative experiment from a total of three independent studies is shown. FIG. 4B depicts Q-RT-PCR analysis for UCP1 and DIO2 expression in differentiated hWA and hBA from Sub1 and Sub2 that were treated for 48 h with 3.3 nM BMP7, 3.3 nM BMP8 and 50 nM FGF21. Data are presented as a fold change compared to vehicle treatment of hWA in each subject (mean±s.e.m., n=3; two-tailed Student's t-test; *P<0.05, **P<0.01, ***P<0.001). A representative experiment from a total of three independent studies is shown. […]
RNA extraction, cDNA synthesis, and quantitative real-time PCR (Q-RT-PCR) were performed as described before (Cypess, A. M., et al. Nat Med 19, 635-639, 2013; Tseng, Y. H., et al. Nature 454, 1000-1004, 2008). Q-RT-PCR assays were run in duplicates and quantified in the ABI Prism 7900 sequence-detection system using SYBR (Roche Applied Science, Indianapolis, Ind.). Relative mRNA expression was determined by the delta-Ct method and the values were normalized to the expression of 18S ribosomal RNA (18s).

Which “levels of UCP1 and DIO2” value does the source give for NC[C@H](O)c1ccc(O)c(O)c1 [norepinephrine] here?
The value was “increasing the levels of UCP1 and DIO2”.
